Experimental data published in US20030105046A1, “Interleukin converting enzyme (ICE) and central nervous system damage” (The General Hospital Corporation, priority 1997, published 2003).

Key:
[1] = tested on: apoptosis in an cell-free system; settings: Nicholson et al., Nature 376 (1995), read-out: Dose causing 50% inhibition of apoptosis; cited from earlier work
[2] = tested on: traumatic brain injury in C57BL/6 mice; assay: Weight drop traumatic brain injury, lesion volume by TTC staining; type: in vivo, mouse
Method: Brain trauma experiments and lesion quantification were performed essentially as described (Chan, P. H., et al., Ann. NY Acad. Sci. 738:93-103 (1994)). Spontaneously ventilating adult mice were initially anesthetized with halothane in 70% N2O and 30% O2, and fixed in a stereotactic frame. Before trauma, an atraumatic craniectomy was performed by removing the right parietal bone posterior to the coronal, lateral to the sagittal, and anterior to the lambdoid suture. Laterally, the craniectomy was extended to the insertion of the temporalis muscle. […] A 20 g weight was dropped inside a cylinder from a height of 150 mm onto the piston (final speed v=1.70 m/s). Twenty-four hours after trauma, brains were removed and sectioned into five coronal (2 mm) slices and stained with 2% 2,3,5-triphenyl tetrazolium chloride (TTC) as described for a weight drop trauma model (Chan, P. H., et al., Ann. NY Acad. Sci. 738:93-103 (1994)). Surgical procedure as well as quantification of lesion size was performed by an investigator naive to the animal identity. Lesion volume was calculated using an image analysis system (M4, Imaging Research, St. Catherines, Ontario, Canada) from the total lesion volume integrated from the volumes of each single section, after subtracting the volume of the deficient cortex as caused by piston penetration. The volume of the piston penetration was calculated as that of a cylinder (pr^2h=3.14×1.5^2×3 mm^3=21.2 mm^3), where r is the radius of the piston, and h the depth of penetration. The trauma protocol was approved by the IACUC. The NSE-M17Z and wild-type littermate mice were bred from C57BL/6 background, and the wild-type mice used for zVAD-fink injection experiments were C57BL/6 (Taconic Farms, Germantown, N.Y.). NSE-M17Z mice were genotyped as previously described (Friedlander, R. M., et al., J. Exp. Med. 185:933-940 (1997)). zVAD-fmk (480 ng) or vehicle (DMSO 0.4%) was injected i.c.v. (2 μl; bregma −0.9 mm lateral, −0.1 mm posterior, −3.1 mm deep) 1 hour before or 1 hour after trauma.
Data are presented as mean±SEM. Statistical comparisons were made by Student's t-test. For comparison of lesion size two-way ANOVA followed by Tukey posthoc tests was applied. P<0.05 was considered statistically significant. For statistical evaluation by Student's t-test, data on OH production was log transformed.

[3] = target: Interleukin-1beta converting enzyme (ICE; caspase-1), wild-type murine, endogenous (mouse) (UniProt P29452); assay: cell-based or functional assay
Chain of UniProt P29452 (P29452 whole entry D56N): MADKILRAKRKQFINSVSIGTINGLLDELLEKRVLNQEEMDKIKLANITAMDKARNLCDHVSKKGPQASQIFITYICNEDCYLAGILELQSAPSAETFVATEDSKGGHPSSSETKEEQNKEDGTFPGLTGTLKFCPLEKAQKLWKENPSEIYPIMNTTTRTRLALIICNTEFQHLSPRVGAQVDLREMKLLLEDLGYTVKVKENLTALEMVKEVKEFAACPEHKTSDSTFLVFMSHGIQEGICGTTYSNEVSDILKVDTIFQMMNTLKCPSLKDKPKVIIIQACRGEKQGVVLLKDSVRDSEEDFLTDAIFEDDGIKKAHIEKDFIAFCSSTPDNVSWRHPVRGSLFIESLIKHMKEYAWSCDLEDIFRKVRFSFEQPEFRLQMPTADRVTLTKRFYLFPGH

Substance: Ac-DEVD-CHO
- IC50 [1]: 1 µM

Substance: N-benzyloxycarbonyl-Val-Ala-Asp-fluoromethylketone [zVAD-fink]
- Total lesion volume vs. vehicle (significance) ([2]; 480 ng i.c.v. 1 hour after trauma, 24 hours following impact): not significantly different
- Size of lesion in the two most anterior sections (2-6 mm) vs. vehicle ([2]; 480 ng i.c.v. 1 hour after trauma, P<0.05, n=5): significantly reduced
- Reduction of total lesion volume vs. vehicle-injected mice ([2]; 480 ng i.c.v. 1 hour prior to impact, lesion assessed 24 hours following trauma): 53%
- Reduction of lesion volume vs. vehicle-injected mice ([2]; 480 ng i.c.v. one hour following trauma, lesion assessed 24 hours following trauma): 19%

Substance: fused mutant ICE (C284G)-lacZ protein (M17Z), expressed in neurons of NSE-M17Z transgenic mice (from UniProt P29452 1-402)
- mature IL-1β in whole brain lysates after systemic LPS challenge (ELISA specific for mature IL-1β) [3]: 74.7 % less
